From US20140356325A1, “NOVEL 2'-C-METHYL NUCLEOSIDE DERIVATIVE COMPOUNDS” (Ligand Pharmaceuticals Incorporated, priority 2012, published 2014)

melting point | Compound
106 to 111 °C | CCOc1nc(N)nc2c1ncn2[C@@H]1O[C@H](CO[P@@]2(=O)OCC[C@@H](c3cccc(Cl)c3)O2)[C@@H](OC(=O)C2CCCC2)[C@@]1(C)O [Compound 186, 2(R)-(2-Amino-6-ethoxy-9(H)-purinyl)-5(R)-(4(S)-(3-chlorophenyl)-2-oxo-1,3,2-dioxaphosphorinan-2(R)-yloxymethyl)-3(R)-hydroxy-3(R)-methyl-4(R)-cyclopentylcarboxy-tetrahydrofuran]
128 to 132 °C | C[C@@]12OC(=O)O[C@@H]1[C@@H](CO[P@@]1(=O)OCC[C@@H](c3cccc(Cl)c3)O1)O[C@H]2n1cnc2c(OCC3CC3)nc(N)nc21 [Compound 121, 2(R)-(2-Amino-6-cyclopropylmethoxy-9(H)-purinyl)-4(R)-(4(S)-(3-chlorophenyl)-2-oxo-1,3,2-dioxaphosphorinan-2(R)-yloxymethyl)-1(R)-methyl-7-oxo-3,6,8-trioxa-cis-bicyclo[3.3.0]octane]
79 to 82 °C | CSCCCOc1nc(N)nc2c1ncn2[C@@H]1O[C@H](CO[P@@]2(=O)OCC[C@@H](c3cccc(Cl)c3)O2)[C@H]2OC(=O)O[C@]21C [Compound 130, 2(R)-(2-Amino-6-(3-methylthiopropyloxy)-9(H)-purinyl)-4(R)-(4(S)-(3-chlorophenyl)-2-oxo-1,3,2-dioxaphosphorinan-2(R)-yloxymethyl)-1(R)-methyl-7-oxo-3,6,8-trioxa-cis-bicyclo[3.3.0]octane]
107 to 109 °C | C[C@@]12OC(=O)O[C@@H]1[C@@H](CO[P@@]1(=O)OCC[C@@H](c3cccc(Cl)c3)O1)O[C@H]2n1cnc2c(OC3CCCC3)nc(N)nc21 [Compound 125, 2(R)-(2-Amino-6-cyclopentyloxy-9(H)-purinyl)-4(R)-(4(S)-(3-chlorophenyl)-2-oxo-1,3,2-dioxaphosphorinan-2(R)-yloxymethyl)-1(R)-methyl-7-oxo-3,6,8-trioxa-cis-bicyclo[3.3.0]octane]
96 to 98 °C | CCOc1nc(N)nc2c1ncn2[C@@H]1O[C@H](CO[P@@]2(=O)OCC[C@@H](c3cc(F)cc(F)c3)O2)[C@H]2OC(=O)O[C@]21C [Compound 126, 2(R)-(2-Amino-6-ethoxy-9(H)-purinyl)-4(R)-(4(S)-(3,5-difluorophenyl)-2-oxo-1,3,2-dioxaphosphorinan-2(R)-yloxymethyl)-1(R)-methyl-7-oxo-3,6,8-trioxa-cis-bicyclo[3.3.0]octane]
105 to 108 °C | C[C@@]12OC(=O)O[C@@H]1[C@@H](CO[P@@]1(=O)OCC[C@@H](c3cccc(Cl)c3)O1)O[C@H]2n1cnc2c(OCC3CCOCC3)nc(N)nc21 [Compound 129, 2(R)-(2-Amino-6-(4-tetrahydropyranylmethoxy)-9(H)-purinyl)-4(R)-(4(S)-(3-chlorophenyl)-2-oxo-1,3,2-dioxaphosphorinan-2(R)-yloxymethyl)-1(R)-methyl-7-oxo-3,6,8-trioxa-cis-bicyclo[3.3.0]octane]
92 to 94 °C | C[C@@]12OC(=O)O[C@@H]1[C@@H](CO[P@@]1(=O)OCC[C@@H](c3cccc(Cl)c3)O1)O[C@H]2n1cnc2c(OCC3CCC3)nc(N)nc21 [Compound 140, 2(R)-(2-Amino-6-cyclobutylmethoxy-9(H)-purinyl)-4(R)-(4(S)-(3-chlorophenyl)-2-oxo-1,3,2-dioxaphosphorinan-2(R)-yloxymethyl)-1(R)-methyl-7-oxo-3,6,8-trioxa-cis-bicyclo[3.3.0]octane]

Further lines, the compound ahead of its results:

Compound | melting point
C[C@@]12OC(=O)O[C@@H]1[C@@H](CO[P@@]1(=O)OCC[C@@H](c3cc(F)cc(F)c3)O1)O[C@H]2n1cnc2c(O)nc(N)nc21 [Compound 101, 2(R)-(2-Amino-6-hydroxy-9(H)-purinyl)-4(R)-(4(S)-(3,5-difluorophenyl)-2-oxo-1,3,2-dioxaphosphorinan-2-(R)-yloxymethyl)-1(R)-methyl-7-oxo-3,6,8-trioxa-cis-bicyclo[3.3.0]octane] | 234 to 236 °C
C[C@@]12OC(=O)O[C@@H]1[C@@H](CO[P@@]1(=O)OCC[C@@H](c3cccc(Cl)c3)O1)O[C@H]2n1cnc2c(O)nc(N)nc21 [Compound 106, 2(R)-(2-Amino-6-hydroxy-9 (H)-purinyl)-4(R)-(4(S)-(3-chlorophenyl)-2-oxo-1,3,2-dioxaphosphorinan-2(R)-yloxymethyl)-1(R)-methyl-7-oxo-3,6,8-trioxa-cis-bicyclo[3.3.0]octane] | > 200 °C
CCOC(COc1nc(N)nc2c1ncn2[C@@H]1O[C@H](CO[P@@]2(=O)OCC[C@@H](c3cccc(Cl)c3)O2)[C@H]2OC(=O)O[C@]21C)OCC [Compound 149, 2(R)-(2-Amino-6-(2,2-diethoxyethoxy)-9(H)-purinyl)-4(R)-(4(S)-(3-chlorophenyl)-2-oxo-1,3,2-dioxaphosphorinan-2(R)-yloxymethyl)-1(R)-methyl-7-oxo-3,6,8-trioxa-cis-bicyclo[3.3.0]octane] | 72 to 75 °C
C[C@@]12OC(=O)O[C@@H]1[C@@H](CO[P@@]1(=O)OCC[C@@H](c3cccc(Cl)c3)O1)O[C@H]2n1cnc2c(OCC3CCCCC3)nc(N)nc21 [Compound 146, 2(R)-(2-Amino-6-cyclohexylmethoxy-9(H)-purinyl)-4(R)-(4(S)-(3-chlorophenyl)-2-oxo-1,3,2-dioxaphosphorinan-2(R)-yloxymethyl)-1(R)-methyl-7-oxo-3,6,8-trioxa-cis-bicyclo[3.3.0]octane] | 101 to 103 °C
CCOc1nc(N)nc2c1ncn2[C@@H]1O[C@H](CO[P@@]2(=O)OCC[C@@H](c3cccc(Cl)c3)O2)[C@H]2OC(=O)O[C@]21C [Compound 120, 2(R)-(2-Amino-6-ethoxy-9(H)-purinyl)-4(R)-(4(S)-(3-chlorophenyl)-2-oxo-1,3,2-dioxaphosphorinan-2(R)-yloxymethyl)-1(R)-methyl-7-oxo-3,6,8-trioxa-cis-bicyclo[3.3.0]octane] | 82 to 84 °C
CC(C)(C)COc1nc(N)nc2c1ncn2[C@@H]1O[C@H](CO[P@@]2(=O)OCC[C@@H](c3cccc(Cl)c3)O2)[C@H]2OC(=O)O[C@]21C [Compound 147, 2(R)-(2-Amino-6-(2,2-dimethylpropyloxy)-9(H)-purinyl)-4(R)-(4(S)-(3-chlorophenyl)-2-oxo-1,3,2-dioxaphosphorinan-2(R)-yloxymethyl)-1(R)-methyl-7-oxo-3,6,8-trioxa-cis-bicyclo[3.3.0]octane] | 88 to 91 °C
CCOc1nc(N)nc2c1ncn2[C@@H]1O[C@H](CO[P@@]2(=O)OCC[C@@H](c3cccc(Br)c3)O2)[C@H]2OC(=O)O[C@]21C [Compound 123, 2(R)-(2-Amino-6-ethoxy-9(H)-purinyl)-4(R)-(4(S)-(3-bromophenyl)-2-oxo-1,3,2-dioxaphosphorinan-2(R)-yloxymethyl)-1(R)-methyl-7-oxo-3,6,8-trioxa-cis-bicyclo[3.3.0]octane] | 77 to 80 °C
CC(C)Oc1nc(N)nc2c1ncn2[C@@H]1O[C@H](CO[P@@]2(=O)OCC[C@@H](c3cccc(Cl)c3)O2)[C@H]2OC(=O)O[C@]21C [Compound 151, 2(R)-(2-Amino-6-isopropyloxy-9(H)-purinyl)-4(R)-(4(S)-(3-chlorophenyl)-2-oxo-1,3,2-dioxaphosphorinan-2(R)-yloxymethyl)-1(R)-methyl-7-oxo-3,6,8-trioxa-cis-bicyclo[3.3.0]octane] | 106 to 110 °C
COC(C)(C)CCOc1nc(N)nc2c1ncn2[C@@H]1O[C@H](CO[P@@]2(=O)OCC[C@@H](c3cccc(Cl)c3)O2)[C@H]2OC(=O)O[C@]21C [Compound 138, 2(R)-(2-Amino-6-(3-methyl-3-methoxybutyloxy)-9 (H)-purinyl)-4(R)-(4(S)-(3-chlorophenyl)-2-oxo-1,3,2-dioxaphosphorinan-2(R)-yloxymethyl)-1(R)-methyl-7-oxo-3,6,8-trioxa-cis-bicyclo[3.3.0]octane] | 93 to 96 °C
CC(C)CCOc1nc(N)nc2c1ncn2[C@@H]1O[C@H](CO[P@@]2(=O)OCC[C@@H](c3cccc(Cl)c3)O2)[C@H]2OC(=O)O[C@]21C [Compound 134, 2(R)-(2-Amino-6-(3-methylbutyloxy)-9(H)-purinyl)-4(R)-(4(S)-(3-chlorophenyl)-2-oxo-1,3,2-dioxaphosphorinan-2(R)-yloxymethyl)-1(R)-methyl-7-oxo-3,6,8-trioxa-cis-bicyclo[3.3.0]octane] | 76 to 78 °C
CCOc1nc(N)nc2c1ncn2[C@@H]1O[C@H](CO[P@@]2(=O)OCC[C@@H](c3cc(Cl)cc(Cl)c3)O2)[C@H]2OC(=O)O[C@]21C [Compound 127, 2(R)-(2-Amino-6-ethoxy-9(H)-purinyl)-4(R)-(4(S)-(3,5-dichlorophenyl)-2-oxo-1,3,2-dioxaphosphorinan-2(R)-yloxymethyl)-1(R)-methyl-7-oxo-3,6,8-trioxa-cis-bicyclo[3.3.0]octane] | 101 to 103 °C
COc1nc(N)nc2c1ncn2[C@@H]1O[C@H](CO[P@@]2(=O)OCC[C@@H](c3cccc(Cl)c3)O2)[C@H]2OC(=O)O[C@]21C [Compound 119, 2(R)-(2-Amino-6-methoxy-9(H)-purinyl)-4(R)-(4(S)-(3-chlorophenyl)-2-oxo-1,3,2-dioxaphosphorinan-2(R)-yloxymethyl)-1(R)-methyl-7-oxo-3,6,8-trioxa-cis-bicyclo[3.3.0]octane] | 125 to 130 °C
CCOc1nc(N)nc2c1ncn2[C@@H]1O[C@H](CO[P@@]2(=O)OCC[C@@H](c3ccccc3)O2)[C@H]2OC(=O)O[C@]21C [Compound 182, 2(R)-(2-Amino-6-ethoxy-9(H)-purinyl)-4(R)-(4(S)-phenyl-2-oxo-1,3,2-dioxaphosphorinan-2(R)-yloxymethyl)-1(R)-methyl-7-oxo-3,6,8-trioxa-cis-bicyclo[3.3.0]octane] | 105 to 107 °C
CCOc1nc(N)nc2c1ncn2[C@@H]1O[C@H](CO[P@]2(=O)OCC[C@H](c3cc(Cl)cc(Cl)c3)O2)[C@H]2OC(=O)O[C@]21C [Compound 128, 2(R)-(2-Amino-6-ethoxy-9(H)-purinyl)-4(R)-(4(R)-(3,5-dichlorophenyl)-2-oxo-1,3,2-dioxaphosphorinan-2(S)-yloxymethyl)-1(R)-methyl-7-oxo-3,6,8-trioxa-cis-bicyclo[3.3.0]octane] | 101 to 103 °C
